Laboratory results reported in patent US20180177184A1, “ANTIMICROBIAL, INSECTICIDAL AND ACARICIDAL SYSTEM” (UNIVERSIDAD POLITECNICA DE VALENCIA, priority 2015, published 2018).

Test system: Listeria innocua
Assay: Bacterial viability of Listeria innocua, 2 h incubation in tryptone soy broth, CFU counting
Format: cell-based
Settings: L. innocua, about 10^6 CFU/ml, 37° C., concentration of vanillin
Protocol: To that end, in vitro assays were carried out to determine the bacterial viability of Listeria innocua compared to mesoporous particles functionalized with vanillin as well as free vanillin. […] To that end, different suspensions of particles or free vanillin in culture broth (tryptone soy broth) were prepared, and the microbial inoculum was added thereto to obtain an initial population of about 10^6 CFU/ml. Said suspensions were incubated under orbital stirring (150 rpm) at 37° C. for 2 h. After said period, the serial dilutions were seeded in selective medium and incubated for 48 h, with subsequent counting of the colony forming units (CFUs) and calculation of the percentage of inhibition.

COc1cc(C=O)ccc1O [free vanillin, vanillin]
concentration producing complete inhibition of the microorganism: 4 mg/mL
